Legend:
[1] = Dissolution of 1,25(OH)2D3 in iodised poppy seed oil; format: physicochemical; conditions: in one ml of iodised poppy seed oil
Experimental: For example, 2 mg of 1,25(OH)2 D3 can be readily dissolved in one ml of iodised poppy seed oil.

HepG2 cells [2] = experiment: [3H]thymidine incorporation cell proliferation assay; format: cell-based, human
Experimental: (§1) Following exposure of cells to vitamin D3 dissolved in normal or lipiodol (1% v/v) containing media. [^3H]thymidine incorporation assay and the trypan blue exclusion cell count methods were used to determine cell proliferation. To do this, cells were plated in 24 well tissue culture plates at 10^4 cells per well and incubated for 24 h in an incubator at 37° C. with humidified 5% CO2 atmosphere. The, medium was replaced with one containing vitamin D3(10^−11 to 10^−7 M) dissolved in either the normal medium or first dissolved in lipiodol and then mixed thoroughly with the medium to make a final lipiodol concentration of 1% (v/v). For acute dose studies, cells were exposed to one of the two drug containing media for 24 h, which were then replaced with drug free medium for the next four days. Whilst, in chronic treatment, cells were exposed for 5 days to different concentrations of the drug dissolved in one of the media described above. The media were changed on alternate days. At the end of treatment period, cell cultures were assayed for thymidine incorporation by the addition of 0.1μ Ci of [^3H]thymidine to each well for the last 4 h of culture. The amount of radioactivity incorporated into trichloroacetic acid precipitatable material was determined using a β-scintillation counter. Results are plotted as percentage inhibition relative to control. […]

HepG2 cells [3] = experiment: Trypan blue exclusion cell count assay; format: cell-based, human
Experimental: as §1, with “At the end of treatment period, cell cultures were assayed for thymidine incorporation by the addition of 0.1μ Ci of [^3H]thymidine to each well for the last 4 h of culture.” left out, “counter.” for “counter. Results are plotted as percentage inhibition relative to control.”
For the cell count assay, cells were plated in six well plates at a concentration of 5×10^4 cells per well. […] At the end of the treatment period (5 days), cells were trypsinised and counted with a hemocytometer. […]

[4] = Radiolabelled vitamin D3 levels in liver, tumor and plasma after hepatic artery injection in Novikoff tumor bearing rats; format: in vivo, Sprague-Dawley rats; conditions: 1 hour post injection
Experimental: Male 300-350 gr. Sprague-Dawely rats were given a general anaesthetic (halothane) and a lapratomy performed. Then 5×10^6 Novikoff cells suspended in 100 μl of medium was instilled beneath the liver capsule using a 26G3/8-tuberculin needle. The abdominal incision was then closed with gut suture.
Animals were then left for 10 days with food and water available ad libitum and monitored daily to assess health and well being. After this period, animals were randomly allocated to one of the treatment groups (n=6 per group) and lapratomy was performed again. A catheter was inserted into the hepatic artery of the animal, through which radiolabelled vitamin D3 or vehicle injections were carried out. The different experimental groups treated were as follows:
After administration of the drug, the catheter was removed and the incision sutured. Animals were euthanased at 1 hour, 1, and 3 days post drug (or vehicle) administration. Just before euthanasing, 3 ml of blood was drawn through cardiac puncture from each animal.
Post mortem, the liver and the tumor of each animal was excised, weighed and frozen in the freezer until analysis. After tissue homogenization, liver, tumor or plasma was extracted with dichloromethane. The amount of hot vitamin D3 present in each sample was determined using a β-counter.

HTC = experiment: Screening of rat cell lines for responsiveness to vitamin D3; format: cell-based; conditions: 10^-6 M, read-out: inhibition of proliferation
Excerpt: (§2) 2. In order to find an appropriate cell line, which would grow in the rat tumor and also be responsive to vitamin D3, rat cell lines, Novikoff and HTC were screened for responsiveness to vitamin D3(10^−11-10^−6 M).

Novikoff = experiment: as above; format: cell-based; conditions: 10^-11-10^-6 M
Excerpt: as §2

C=C1/C(=C\C=C2/CCC[C@]3(C)[C@@H]([C@H](C)CCCC(C)(C)O)CC[C@@H]23)C[C@@H](O)C[C@@H]1O [1,25(OH)2 D3, 1,25-dihydroxycholecalciferol]
amount readily dissolved [1]: 2 mg

C=C1CC[C@H](O)C/C1=C/C=C1\CCC[C@]2(C)[C@@H]([C@H](C)CCCC(C)C)CC[C@@H]12 [vitamin D3, cholecalciferol]
thymidine incorporation compared to control, acute treatment (HepG2 cells [2]; 1 day exposure to drug, then 4 days medium without drug): did not show a reduction in thymidine incorporation | thymidine incorporation versus control, chronic treatment (HepG2 cells [2]; 5 days exposure, all concentrations (10^-11 to 10^-7 M)): significant reduction in thymidine incorporation | cell number, acute treatment (HepG2 cells [3]; 10^-7 M, 1 day exposure, then 4 days drug free): significant reduction in cell number | cell number, chronic treatment (HepG2 cells [3]; 5 days exposure): dose dependant decrease in call number | level of radioactivity in liver, tumor and plasma [4]: high in all three samples | inhibition at 1 µM (HTC): ~50% | responsiveness of cell line to vitamin D3 (Novikoff): non responsive
